Active and inactive are the calls of the source.
How the values were obtained:
[1] = HEp-2 cell cytotoxicity, dose response, cytotoxicity control for RSV inhibitor project, HTS (AID 2410); format: functional; conditions: human respiratory syncytial virus
cells [2] = assay: cells
[3] = Luminescence Cell-Based Dose Retest to Confirm Inhibitors of Cancer Stem Cells. [Related pubchem assays (depositor defined):AID2717, AID2721]; format: functional; conditions: Homo sapiens
INS1 = assay: beta cell apoptosis inhibitors, cytokine rescue, dose response, luminescence, retest (AID 449756); format: functional, cell-based; conditions: Rattus norvegicus;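 note: cell death triggered by IL-1 beta plus TNF-alpha plus IFN-gamma mixture; protective hits raise ATP signal compared with cytokine alone wells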
cells [4] = format: functional
[5] = Vero E6 cell cytotoxicity, dose response, cytotoxicity control for non-replicating M. tuberculosis project, secondary assay (AID 492998); format: functional, VeroE6; conditions: Vero C1008
[6] = target: T1, RNA-binding protein pos-1 (Caenorhabditis elegans, UniProt G5EF15); assay: inhibitors of POS-1/mex-3 RNA binding, dose response, biochemical, fluorescence polarization (AID 1964);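 note: purified POS-1 fused to maltose binding protein made in E. coli; potency of compounds blocking POS-1 binding to fluorescent RNA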
T1 sequence (G5EF15 whole entry): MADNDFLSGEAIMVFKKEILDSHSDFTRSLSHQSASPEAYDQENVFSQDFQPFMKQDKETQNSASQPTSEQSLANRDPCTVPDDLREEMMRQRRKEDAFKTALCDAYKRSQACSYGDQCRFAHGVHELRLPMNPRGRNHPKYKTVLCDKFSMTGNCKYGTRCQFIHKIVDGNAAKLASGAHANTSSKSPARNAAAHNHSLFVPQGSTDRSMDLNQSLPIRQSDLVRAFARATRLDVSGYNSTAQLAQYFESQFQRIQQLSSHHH

[7] = target: T2, Zinc finger protein mex-5 (Caenorhabditis elegans, UniProt Q9XUB2); assay: MEX-5/TCR-2 RNA interaction inhibitors, dose response, biochemical, C. elegans, fluorescence polarization (AID 1960)
T2 sequence (Q9XUB2 whole entry): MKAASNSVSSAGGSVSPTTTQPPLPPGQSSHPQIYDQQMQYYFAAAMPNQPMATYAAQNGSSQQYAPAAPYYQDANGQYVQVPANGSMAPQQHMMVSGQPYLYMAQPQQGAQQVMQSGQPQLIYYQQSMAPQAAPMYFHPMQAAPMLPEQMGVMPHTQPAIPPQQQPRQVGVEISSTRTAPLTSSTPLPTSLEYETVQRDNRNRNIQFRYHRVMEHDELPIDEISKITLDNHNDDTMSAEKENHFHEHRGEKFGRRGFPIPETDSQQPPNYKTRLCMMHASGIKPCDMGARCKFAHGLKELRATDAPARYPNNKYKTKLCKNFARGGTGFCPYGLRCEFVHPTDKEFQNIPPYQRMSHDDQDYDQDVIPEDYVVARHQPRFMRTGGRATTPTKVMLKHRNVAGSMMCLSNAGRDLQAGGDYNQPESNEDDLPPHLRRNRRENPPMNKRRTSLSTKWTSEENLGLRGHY

[8] = LGR2 antagonists, dose response, cell-based, HEK293, CRE-luciferase reporter, cherry pick, set 2 (AID 743343); format: functional;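 note: transfected cells were stimulated with diluted bursicon conditioned medium after compound addition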
Cytochrome P450 3A4 = Cytochrome P450 3A4 (Homo sapiens, UniProt P08684); conditions: Potency;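 note: confirmatory qHTS run detecting inhibitors and substrates of CYP3A4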
Aminopeptidase N = target: T3, Aminopeptidase N (Plasmodium falciparum FcB1/Columbia, UniProt O96935); assay: P. falciparum M1AAP inhibitors, biochemical, fluorogenic H-Leu-NHMec substrate, 1536-well (AID 1445); set-up: species or system Plasmodium falciparum 3D7, 3D7
T3 sequence (O96935 whole entry): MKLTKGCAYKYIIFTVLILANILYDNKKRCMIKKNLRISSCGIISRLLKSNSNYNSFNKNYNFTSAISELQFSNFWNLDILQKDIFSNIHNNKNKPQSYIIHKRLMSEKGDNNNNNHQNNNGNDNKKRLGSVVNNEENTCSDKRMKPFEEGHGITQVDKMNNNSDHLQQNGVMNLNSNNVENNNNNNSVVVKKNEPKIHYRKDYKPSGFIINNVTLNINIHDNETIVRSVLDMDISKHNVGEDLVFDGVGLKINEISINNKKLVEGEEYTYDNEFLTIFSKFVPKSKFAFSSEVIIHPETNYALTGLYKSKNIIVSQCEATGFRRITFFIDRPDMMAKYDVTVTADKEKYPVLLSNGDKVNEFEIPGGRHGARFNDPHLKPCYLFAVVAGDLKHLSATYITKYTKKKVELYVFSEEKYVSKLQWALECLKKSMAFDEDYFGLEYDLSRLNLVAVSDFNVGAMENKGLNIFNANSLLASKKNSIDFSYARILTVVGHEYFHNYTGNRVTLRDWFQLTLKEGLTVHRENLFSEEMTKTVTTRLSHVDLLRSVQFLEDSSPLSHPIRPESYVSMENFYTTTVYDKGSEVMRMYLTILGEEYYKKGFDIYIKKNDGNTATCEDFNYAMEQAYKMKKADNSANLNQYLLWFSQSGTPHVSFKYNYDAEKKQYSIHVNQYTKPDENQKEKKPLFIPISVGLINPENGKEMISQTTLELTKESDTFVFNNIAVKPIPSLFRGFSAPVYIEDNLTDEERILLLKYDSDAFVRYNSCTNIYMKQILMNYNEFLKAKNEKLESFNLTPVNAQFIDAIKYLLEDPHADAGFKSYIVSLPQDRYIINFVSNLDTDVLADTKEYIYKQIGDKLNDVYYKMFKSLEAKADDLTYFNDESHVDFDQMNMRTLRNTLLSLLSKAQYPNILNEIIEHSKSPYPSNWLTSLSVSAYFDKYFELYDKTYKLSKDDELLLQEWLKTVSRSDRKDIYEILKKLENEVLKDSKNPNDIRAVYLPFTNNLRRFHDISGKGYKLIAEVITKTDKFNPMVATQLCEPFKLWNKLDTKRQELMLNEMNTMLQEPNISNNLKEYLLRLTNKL

Genome polyprotein = Genome polyprotein (dengue virus type 2, UniProt P29990); assay: Dengue-2 NS5 methyltransferase inhibitors, primary screen, biochemical, confirmation dose response (AID 588689); format: functional
[9] = cytotoxicity in HEK-293T cells, dose response, cytotoxicity control for TCR NF-kB inhibitor project, luminescence, T-cell screen hits (AID 489026); format: functional, cell-based;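 note: cells exposed to compound about 14 hours before the viability readout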
[10] = target: T4, Microphthalmia-associated transcription factor (Homo sapiens, UniProt O75030); assay: TRPM1 promoter luciferase signal decrease, dose response, MITF inhibitor project, cell-based, SK-MEL-5, cherry-picked, set 3 (AID 493073); format: functional
T4 sequence (O75030 whole entry): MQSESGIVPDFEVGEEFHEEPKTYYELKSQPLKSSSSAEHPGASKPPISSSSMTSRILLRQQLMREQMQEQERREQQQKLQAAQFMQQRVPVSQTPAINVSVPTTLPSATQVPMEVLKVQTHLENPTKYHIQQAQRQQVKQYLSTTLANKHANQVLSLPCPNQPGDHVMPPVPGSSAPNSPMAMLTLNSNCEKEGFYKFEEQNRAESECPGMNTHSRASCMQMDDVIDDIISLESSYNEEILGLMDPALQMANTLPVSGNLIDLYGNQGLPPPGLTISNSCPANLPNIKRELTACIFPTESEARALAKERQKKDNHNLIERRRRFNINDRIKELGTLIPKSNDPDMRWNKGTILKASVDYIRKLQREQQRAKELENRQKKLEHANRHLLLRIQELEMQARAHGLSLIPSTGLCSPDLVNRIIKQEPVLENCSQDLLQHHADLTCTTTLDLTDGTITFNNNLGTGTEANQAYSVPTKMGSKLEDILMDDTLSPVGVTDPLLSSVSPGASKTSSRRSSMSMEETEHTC

Paired box protein Pax-8 = Paired box protein Pax-8 (Homo sapiens, UniProt Q06710); assay: inhibitors of PAX8-driven TPO luciferase reporter, dose response, RMG-I cells, cherry-pick (AID 687027); format: functional, cell-based;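 note: luciferase reporter driven by Pax8 target thyroperoxidase promoter measured by SteadyGlo luminescence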
[11] = P. falciparum 3D7-ScDHODH growth inhibitors, dose response, SYBR Green, dry powder samples (AID 1159570); format: functional, cell-based;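 note: parasite growth measured after 72 hours of compound exposure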
[12] = P. falciparum Dd2 growth inhibitors, dose response, SYBR Green, cherry-picked samples (AID 1159567); format: functional, cell-based
[13] = P. falciparum ATP4 D1247Y mutant growth inhibitors, dose response, NITD609-resistant line, SYBR Green, dry powder (AID 1159571); format: functional, cell-based;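 note: parasites synchronized at ring stage by sorbitol before testing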
[14] = HepG2 cell cytotoxicity, dose response, cytotoxicity control, plate reader, dry powder samples (AID 1159569); format: functional, cell-based;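 note: inhibitor potency with signal falling toward the positive control level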
[15] = P. falciparum Dd2 growth inhibitors, dose response, SYBR Green, dry powder samples (AID 1159566); format: functional, cell-based;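 note: potency for growth inhibition with lower SYBR green DNA signal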

Sequence of Cytochrome P450 3A4 (P08684 whole entry): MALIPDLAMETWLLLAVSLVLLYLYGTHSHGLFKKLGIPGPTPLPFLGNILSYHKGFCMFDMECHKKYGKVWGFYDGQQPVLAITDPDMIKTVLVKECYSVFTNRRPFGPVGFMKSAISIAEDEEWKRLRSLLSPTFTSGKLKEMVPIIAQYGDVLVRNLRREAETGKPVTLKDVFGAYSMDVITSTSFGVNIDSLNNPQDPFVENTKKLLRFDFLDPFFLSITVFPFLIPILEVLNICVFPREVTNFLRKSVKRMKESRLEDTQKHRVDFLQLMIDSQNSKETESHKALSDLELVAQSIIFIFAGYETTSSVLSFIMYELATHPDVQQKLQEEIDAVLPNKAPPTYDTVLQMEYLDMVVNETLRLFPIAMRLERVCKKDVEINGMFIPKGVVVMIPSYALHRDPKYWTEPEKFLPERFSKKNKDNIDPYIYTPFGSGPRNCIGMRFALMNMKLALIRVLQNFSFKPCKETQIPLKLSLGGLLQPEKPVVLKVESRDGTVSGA
Sequence of Genome polyprotein (P29990 2492-3391 limits assumed): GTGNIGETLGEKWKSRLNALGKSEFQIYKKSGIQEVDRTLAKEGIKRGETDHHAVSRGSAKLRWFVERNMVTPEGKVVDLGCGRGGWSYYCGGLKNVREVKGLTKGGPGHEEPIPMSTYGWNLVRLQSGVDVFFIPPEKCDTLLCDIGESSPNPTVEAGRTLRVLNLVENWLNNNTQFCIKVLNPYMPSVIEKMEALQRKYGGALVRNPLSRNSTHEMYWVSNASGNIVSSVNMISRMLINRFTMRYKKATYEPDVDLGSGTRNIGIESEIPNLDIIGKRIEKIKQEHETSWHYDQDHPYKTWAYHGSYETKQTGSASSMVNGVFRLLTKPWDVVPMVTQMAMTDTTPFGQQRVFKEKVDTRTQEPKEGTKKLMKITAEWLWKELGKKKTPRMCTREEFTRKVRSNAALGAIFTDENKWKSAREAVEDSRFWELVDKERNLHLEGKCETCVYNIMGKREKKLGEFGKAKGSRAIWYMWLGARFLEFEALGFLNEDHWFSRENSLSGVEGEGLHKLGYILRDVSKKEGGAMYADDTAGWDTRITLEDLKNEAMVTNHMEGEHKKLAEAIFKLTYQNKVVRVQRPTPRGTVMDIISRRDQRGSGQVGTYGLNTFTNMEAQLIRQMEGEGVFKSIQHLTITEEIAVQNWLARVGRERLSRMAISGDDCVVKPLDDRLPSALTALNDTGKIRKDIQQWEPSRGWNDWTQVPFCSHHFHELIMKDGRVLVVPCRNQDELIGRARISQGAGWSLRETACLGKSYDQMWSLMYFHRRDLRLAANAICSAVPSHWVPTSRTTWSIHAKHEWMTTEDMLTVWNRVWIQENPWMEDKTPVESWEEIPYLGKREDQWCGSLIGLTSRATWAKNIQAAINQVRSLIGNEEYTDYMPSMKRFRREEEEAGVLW
Sequence of Paired box protein Pax-8 (Q06710 whole entry): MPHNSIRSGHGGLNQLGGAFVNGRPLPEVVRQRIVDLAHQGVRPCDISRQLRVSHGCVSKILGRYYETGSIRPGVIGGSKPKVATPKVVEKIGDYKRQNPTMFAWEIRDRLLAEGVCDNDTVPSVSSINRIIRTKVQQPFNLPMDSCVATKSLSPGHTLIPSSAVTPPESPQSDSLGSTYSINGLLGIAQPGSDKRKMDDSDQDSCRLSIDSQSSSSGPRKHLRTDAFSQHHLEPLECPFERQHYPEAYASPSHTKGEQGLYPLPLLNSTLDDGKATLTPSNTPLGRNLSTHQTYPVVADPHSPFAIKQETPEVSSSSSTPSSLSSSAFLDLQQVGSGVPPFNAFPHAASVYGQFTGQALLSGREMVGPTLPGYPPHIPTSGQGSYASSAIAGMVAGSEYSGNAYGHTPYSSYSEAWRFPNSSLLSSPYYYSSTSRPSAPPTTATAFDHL

N#CCSc1nc2ccccc2c2nc3ccccc3n12
CC50 [1]: 7.62 µM (active)
IC50 (cells [2]): 9.82 µM (active)
AC50 [3]: 3.31 µM (active)
AC50 (INS1): 8.38 µM (active)

C=CCn1c(NC(=O)c2ccccc2)nc2ccccc21
IC50 (cells [4]): 0.68 µM (active)
CC50 [5]: 17.7 µM (active)

O=C(c1ccc(Br)o1)N1CCN=C1SCc1cccc(F)c1
EC50 [6]: > 300 µM (not active)
EC50 [7]: > 300 µM (not active)

CC(C)(C)NC(=O)c1cccc(NC(=O)c2ccc3c(c2)C(=O)N(C(C)(C)C)C3=O)c1
CC50 [1]: > 50 µM (active)
IC50 (cells [2]): 39.8 µM (active)
AC50 [8]: 37.3 µM (active)

COC(=O)N1[C@H](C)C=C[C@]1(Cc1ccccc1)C(=O)NCc1ccc(N(C)C)cc1
AC50 (Cytochrome P450 3A4): 1 µM (inconclusive)

O=C(Nc1ccc(Cl)cc1C(=O)O)c1ccc2c(c1)C(=O)N(Cc1ccco1)C2=O
IC50 (Aminopeptidase N): 137 µM (active)
IC50 (Genome polyprotein): 46.3 µM (active)

N#C/C(=C\c1ccc(OCc2ccc(C(=O)O)cc2)cc1)C(=O)N1CCOCC1
IC50 [9]: > 80 µM (inactive)
AC50 [10]: 1.19 µM (active)

C[C@H]1CN([C@@H](C)CO)C(=O)c2c(c3ccccc3n2C)-c2ccccc2CO[C@@H]1CN(C)Cc1ccc(-c2ccccc2)cc1
AC50 (Paired box protein Pax-8): 24.9 µM (active)
AC50 [11]: 2.75 µM (active)
AC50 [12]: 2.75 µM (active)
AC50 [13]: 1.99 µM (active)
AC50 [14]: 22.2 µM (active)
AC50 [15]: 1.49 µM (active)

C[C@H](CO)N1C[C@H](C)[C@H](CN(C)CC2CC2)Oc2ccc(NC(=O)Nc3cccc4ccccc34)cc2CC1=O
AC50 [11]: 2.51 µM (active)
AC50 [12]: 2.51 µM (active)
AC50 [13]: 2.47 µM (active)
AC50 [14]: 48.5 µM (active)
AC50 [15]: 1.25 µM (active)

Fc1cccc(-c2ccc([C@@H]3[C@@H]4CN(Cc5cncnc5)C[C@H]3N4)cc2)c1
AC50 [11]: 4.51 µM (active)
AC50 [12]: 1.36 µM (active)
AC50 [13]: 2.67 µM (active)
AC50 [14]: 18.8 µM (active)
AC50 [15]: 1.6 µM (active)

COc1ccc(C(=O)c2ccc(O)cc2)c(O)c1O [2,3,4'-TRIHYDROXY-4-METHOXYBENZOPHENONE]
AC50 (Cytochrome P450 3A4): 25.1 µM (inconclusive)

Reference: ChEMBL document CHEMBL1201862, “PubChem BioAssay data set” (2004)
